Assay results published in US11077090B2, “Compounds and compositions and uses thereof” (Sunovion Pharmaceuticals Inc., priority 2016, dated 2021).
Counter-ions that a name gives are not always drawn. Like-named read-outs stand apart in the source and are kept apart here.

Test system: compound-treated mice
Test: Neuropharmacological assay (SmartCube): behavioral activity signature and minimal effective dose
Type: in vivo
Conditions: for minimal effective dose: Mus musculus, ip; for AD: ADHD (probability of activity signature) / AG: analgesic (probability of activity signature) / AX: anxiolytic (probability of activity signature) / CE: cognitive enhancer (probability of activity signature) / DP: anti-depressant (probability of activity signature) / MS: mood stabilizer (probability of activity signature) / PS: anti-psychotic (probability of activity signature) / SD: sedative hypnotic (probability of activity signature) / UN: uncharacterized CNS activity (probability of activity signature): i.p. 15 min before test, most efficacious dose(s)
Procedure, shortened: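 Video-recorded behavior is compared algorithmically against a reference-compound database, yielding class probabilities (best dose reported). Compounds given i.p. in NMP/PEG/propylene glycol 15 min pre-test at 3 doses; potency as MED, the dose (mpk, range usually 0.3–30) reaching ≥50% total activity.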

[1] = MED = dose having 50% or more total activity, read-out: Potency: minimal effective dose (MED), binned
[2] = MED = dose having 50% or more total activity, read-out: Potency: minimal effective dose (MED)
[3] = MED = dose having 50% or more total activity

SMILES	minimal effective dose [1]	AD: ADHD (probability of activity signature)	AG: analgesic (probability of activity signature)	AX: anxiolytic (probability of activity signature)	CE: cognitive enhancer (probability of activity signature)	DP: anti-depressant (probability of activity signature)	MS: mood stabilizer (probability of activity signature)	PS: anti-psychotic (probability of activity signature)	SD: sedative hypnotic (probability of activity signature)	UN: uncharacterized CNS activity (probability of activity signature)	minimal effective dose [2]	Potency: minimal effective dose (MED), binned [3]	Potency: minimal effective dose (MED) [3]
C[C@@H]1OCc2ccc(Cl)cc2[C@@H]1N.Cl [Example 194]	3 to 10 mg/kg	+ (LOQ ≤ + <5%)	++ (5% ≤ ++ <25%)	++ (5% ≤ ++ <25%)	++ (5% ≤ ++ <25%)	++ (5% ≤ ++ <25%)	+ (LOQ ≤ + <5%)	++ (5% ≤ ++ <25%)	+ (LOQ ≤ + <5%)	++++ (50% ≤ ++++)	–	–	–
Cc1ccc2c(c1)[C@@H](N)[C@H](C)OC2 [Example 156]	–	+ (LOQ ≤ + <5%)	++ (5% ≤ ++ <25%)	++ (5% ≤ ++ <25%)	++ (5% ≤ ++ <25%)	+ (LOQ ≤ + <5%)	+ (LOQ ≤ + <5%)	+ (LOQ ≤ + <5%)	+ (LOQ ≤ + <5%)	+++ (25% ≤ +++ <50%)	3 to 10 mg/kg	–	–
Cc1cccc2c1COCC2N.Cl (stereo not drawn) [Example 27]	–	+ (LOQ ≤ + <5%)	++ (5% ≤ ++ <25%)	++ (5% ≤ ++ <25%)	++ (5% ≤ ++ <25%)	++ (5% ≤ ++ <25%)	++ (5% ≤ ++ <25%)	++ (5% ≤ ++ <25%)	+ (LOQ ≤ + <5%)	+++ (25% ≤ +++ <50%)	3 to 10 mg/kg	–	–
C[C@@H]1OC[C@@H](N(C)C)c2ccccc21 (stereo in doubt) [Example 239, cis-N,N,1-trimethylisochroman-4-amine hydrochloride]	3 to 10 mg/kg	++ (5% ≤ ++ <25%)	++ (5% ≤ ++ <25%)	++ (5% ≤ ++ <25%)	++ (5% ≤ ++ <25%)	++ (5% ≤ ++ <25%)	+ (LOQ ≤ + <5%)	++ (5% ≤ ++ <25%)	+ (LOQ ≤ + <5%)	+++ (25% ≤ +++ <50%)	–	–	–
Cl.NC1COCc2ccc3c(c21)C1CCC3C1 (single isomer, unassigned) [Example 161]	–	+ (LOQ ≤ + <5%)	++ (5% ≤ ++ <25%)	+++ (25% ≤ +++ <50%)	++ (5% ≤ ++ <25%)	++ (5% ≤ ++ <25%)	+ (LOQ ≤ + <5%)	++ (5% ≤ ++ <25%)	+ (LOQ ≤ + <5%)	++ (5% ≤ ++ <25%)	–	B (>3 to 10 mpk)	–
Cc1ccc2c(c1)[C@H](N)[C@@H](C(C)C)OC2 [Example 210]	3 to 10 mg/kg	+ (LOQ ≤ + <5%)	++ (5% ≤ ++ <25%)	++ (5% ≤ ++ <25%)	++ (5% ≤ ++ <25%)	+ (LOQ ≤ + <5%)	+ (LOQ ≤ + <5%)	+ (LOQ ≤ + <5%)	+ (LOQ ≤ + <5%)	++++ (50% ≤ ++++)	–	–	–
CC[C@H]1OCc2ccccc2[C@@H]1N.Cl (single isomer, unassigned) [Example 199]	< 3 mg/kg	+ (LOQ ≤ + <5%)	++ (5% ≤ ++ <25%)	++++ (50% ≤ ++++)	++ (5% ≤ ++ <25%)	+ (LOQ ≤ + <5%)	+ (LOQ ≤ + <5%)	++ (5% ≤ ++ <25%)	++ (5% ≤ ++ <25%)	++++ (50% ≤ ++++)	–	–	–
CC[C@H]1OCc2cccc(C)c2[C@@H]1N.Cl [Example 207]	3 to 10 mg/kg	+ (LOQ ≤ + <5%)	++ (5% ≤ ++ <25%)	++ (5% ≤ ++ <25%)	++ (5% ≤ ++ <25%)	++ (5% ≤ ++ <25%)	+ (LOQ ≤ + <5%)	++ (5% ≤ ++ <25%)	+ (LOQ ≤ + <5%)	++++ (50% ≤ ++++)	–	–	–
N[C@@H]1COCc2cccc(Cl)c21 [Example 127]	–	+ (LOQ ≤ + <5%)	++ (5% ≤ ++ <25%)	++ (5% ≤ ++ <25%)	++ (5% ≤ ++ <25%)	++ (5% ≤ ++ <25%)	+ (LOQ ≤ + <5%)	++ (5% ≤ ++ <25%)	+ (LOQ ≤ + <5%)	+++ (25% ≤ +++ <50%)	< 3 mg/kg	–	–
CC[C@@H]1OCc2ccccc2[C@@H]1NC.Cl [Example 258]	3 to 10 mg/kg	+ (LOQ ≤ + <5%)	+ (LOQ ≤ + <5%)	+ (LOQ ≤ + <5%)	+ (LOQ ≤ + <5%)	++ (5% ≤ ++ <25%)	++ (5% ≤ ++ <25%)	+ (LOQ ≤ + <5%)	++ (5% ≤ ++ <25%)	+ (LOQ ≤ + <5%)	–	–	–
Cc1ccc2c(c1)C(N)COC2.Cl (stereo not drawn) [Example 26]	–	+ (LOQ ≤ + <5%)	++ (5% ≤ ++ <25%)	++ (5% ≤ ++ <25%)	++ (5% ≤ ++ <25%)	++ (5% ≤ ++ <25%)	+ (LOQ ≤ + <5%)	++ (5% ≤ ++ <25%)	+ (LOQ ≤ + <5%)	++++ (50% ≤ ++++)	< 3 mg/kg	–	–
Cl.NC1COCCc2ccc3ccccc3c21 (stereo not drawn) [Example 35]	–	+ (LOQ ≤ + <5%)	++ (5% ≤ ++ <25%)	+++ (25% ≤ +++ <50%)	++ (5% ≤ ++ <25%)	++ (5% ≤ ++ <25%)	+ (LOQ ≤ + <5%)	++ (5% ≤ ++ <25%)	+ (LOQ ≤ + <5%)	+++ (25% ≤ +++ <50%)	–	–	B (>3 to 10 mpk)
C[C@H]1OCc2cc(Cl)ccc2[C@@H]1N.Cl [Example 94]	–	+ (LOQ ≤ + <5%)	++ (5% ≤ ++ <25%)	++ (5% ≤ ++ <25%)	+ (LOQ ≤ + <5%)	+ (LOQ ≤ + <5%)	+ (LOQ ≤ + <5%)	+ (LOQ ≤ + <5%)	+ (LOQ ≤ + <5%)	++ (5% ≤ ++ <25%)	10 to 30 mg/kg	–	–
Cc1cc2c(cc1C)[C@H](N)[C@@H](C)OC2.Cl [Example 238]	10 to 30 mg/kg	+ (LOQ ≤ + <5%)	+ (LOQ ≤ + <5%)	++ (5% ≤ ++ <25%)	++ (5% ≤ ++ <25%)	+ (LOQ ≤ + <5%)	+ (LOQ ≤ + <5%)	++ (5% ≤ ++ <25%)	+ (LOQ ≤ + <5%)	++++ (50% ≤ ++++)	–	–	–
Cc1ccc2c(c1)[C@H](C)OC[C@H]2N [Example 222]	3 to 10 mg/kg	+ (LOQ ≤ + <5%)	+ (LOQ ≤ + <5%)	++ (5% ≤ ++ <25%)	+ (LOQ ≤ + <5%)	+ (LOQ ≤ + <5%)	+ (LOQ ≤ + <5%)	+ (LOQ ≤ + <5%)	+ (LOQ ≤ + <5%)	++++ (50% ≤ ++++)	–	–	–
